Reference: patent US7365088B2, “Indazole-derivatives as factor Xa inhibitors” (Sanofi-Aventis Deutschland GmbH, priority 2003, dated 2008)

The compounds below were run against human factor Xa (Homo sapiens, UniProt P00742) (assay: Factor Xa assay (chromogenic, substrate S-2765)).
Chain of human factor Xa (P00742 235-488 limits assumed): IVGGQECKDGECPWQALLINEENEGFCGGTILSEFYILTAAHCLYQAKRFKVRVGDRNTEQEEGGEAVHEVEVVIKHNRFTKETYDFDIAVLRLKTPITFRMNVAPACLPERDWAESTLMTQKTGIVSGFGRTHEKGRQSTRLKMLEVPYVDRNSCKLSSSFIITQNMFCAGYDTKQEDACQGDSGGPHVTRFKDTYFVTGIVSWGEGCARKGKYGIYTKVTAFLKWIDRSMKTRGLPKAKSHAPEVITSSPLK
Chain of human factor Xa (P00742 41-179 partner limits assumed): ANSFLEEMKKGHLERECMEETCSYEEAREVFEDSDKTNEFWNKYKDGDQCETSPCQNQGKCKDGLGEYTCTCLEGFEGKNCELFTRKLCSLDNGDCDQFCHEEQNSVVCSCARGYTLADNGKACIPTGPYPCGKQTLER
CC1CC(=O)NN=C1c1ccc(NC(=O)c2nn(Cc3cc(-c4ccc(Cl)s4)on3)c3ccccc23)cc1 (stereo not shown) [Example 43, 1-[5-(5-Chloro-thiophen-2-yl)-isoxazol-3-ylmethyl]-1H-indazole-3-carboxylic acid [4-(4-methyl-6-oxo-1,4,5,6-tetrahydro-pyridazin-3-yl)-phenyl]-amide] showed a Ki of 730 nM.
CC(C)N1CCC(NC(=O)c2nn(Cc3cc(-c4ccc(Cl)s4)on3)c3ccc(C(=O)N(C)CCO)cc23)CC1 [Example 18, 1-[5-(5-Chloro-thiophen-2-yl)-isoxazol-3-ylmethyl]-1H-indazole-3,5-dicarboxylic acid 5-[(2-hydroxy-ethyl)-methyl-amide]3-[(1-isopropyl-piperidin-4-yl)-amide]] was tested, and the Ki was 13 nM.
Work on CC(C)N1CCC(NC(=O)c2nn(Cc3cc(-c4ccc(Cl)s4)on3)c3ccc(C(=O)NCCN4CCNC4=O)cc23)CC1 [Example 23, 1-[5-(5-Chloro-thiophen-2-yl)-isoxazol-3-ylmethyl]-1H-indazole-3,5-dicarboxylic acid 3-[(1-isopropyl-piperidin-4-yl)-amide]5-{[2-(2-oxo-imidazolidin-1-yl)-ethyl]-amide}] yielded a Ki of 33 nM.
With CC(C)N1CCC(NC(=O)c2nn(Cc3cc(-c4ccc(Cl)s4)on3)c3cccc(C#N)c23)CC1 [Example 10, 1-[5-(5-Chloro-thiophen-2-yl)-isoxazol-3-ylmethyl]-4-cyano-1H-indazole-3-carboxylic acid (1-isopropyl-piperidin-4-yl)-amide] the Ki was 9 nM.
With CC(C)N1CCC(NC(=O)c2nn(Cc3cc(-c4ccc(Cl)s4)on3)c3ccccc23)CC1 [Example 8, 1-[5-(5-Chloro-thiophen-2-yl)-isoxazol-3-ylmethyl]-1H-indazole-3-carboxylic acid (1-isopropyl-piperidin-4-yl)-amide] the Ki was 6 nM.
In the case of CC(C)N1CCC(NC(=O)c2nn(Cc3cc(-c4ccc(Cl)s4)on3)c3ccc(C(=O)NCCS(C)(=O)=O)cc23)CC1 [Example 13, 1-[5-(5-Chloro-thiophen-2-yl)-isoxazol-3-ylmethyl]-1H-indazole-3,5-dicarboxylic acid 3-[(1-isopropyl-piperidin-4-yl)-amide]5-[(2-methanesulfonyl-ethyl)-amide]], the Ki is reported as 40 nM.
Work on CC(C)N1CCC(NC(=O)c2nn(Cc3cc(-c4ccc(Cl)s4)on3)c3ccc(C(=O)OCCO)cc23)CC1 [Example 29, 1-[5-(5-Chloro-thiophen-2-yl)-isoxazol-3-ylmethyl]-3-(1-isopropyl-piperidin-4-ylcarbamoyl)-1H-indazole-5-carboxylic acid 2-hydroxy-ethyl ester] yielded a Ki of 39 nM.
CS(=O)(=O)c1ccccc1-c1ccc(NC(=O)c2nn(Cc3cc(-c4ccc(Cl)s4)on3)c3ccccc23)cc1 [Example 41, 1-[5-(5-Chloro-thiophen-2-yl)-isoxazol-3-ylmethyl]-1H-indazole-3-carboxylic acid (2′-methanesulfonyl-biphenyl-4-yl)-amide] gave a Ki of 7 nM.
For O=C(c1nn(Cc2cc(-c3ccc(Cl)s3)on2)c2ccccc12)N1CCC(N2CCCC2=O)CC1 [Example 37, 1-(1-{1-[5-(5-Chloro-thiophen-2-yl)-isoxazol-3-ylmethyl]-1H-indazole-3-carbonyl}-piperidin-4-yl)-pyrrolidin-2-one], the Ki was 210 nM.
In the case of CC(C)N1CCC(NC(=O)c2nn(Cc3cc(-c4ccc(Cl)s4)on3)c3ccc(C(=O)NCCN4CCOCC4)cc23)CC1 [Example 15, 1-[5-(5-Chloro-thiophen-2-yl)-isoxazol-3-ylmethyl]-1H-indazole-3,5-dicarboxylic acid 3-[(1-isopropyl-piperidin-4-yl)-amide]5-[(2-morpholin-4-yl-ethyl)-amide]], the Ki is reported as 46 nM.
CC(C)N1CCC(NC(=O)c2nn(Cc3cc(-c4ccc(Cl)s4)on3)c3ccc(C(=O)NCC(=O)O)cc23)CC1 [Example 25, {[1-[5-(5-Chloro-thiophen-2-yl)-isoxazol-3-ylmethyl]-3-(1-isopropyl-piperidin-4-ylcarbamoyl)-1H-indazole-5-carbonyl]-amino}-acetic acid] was tested, and the Ki was 14 nM.
With CC(C)N1CCC(NC(=O)c2nn(Cc3cc(-c4ccc(Cl)s4)on3)c3ccc(C(=O)NC(C)(CO)CO)cc23)CC1 [Example 24, 1-[5-(5-Chloro-thiophen-2-yl)-isoxazol-3-ylmethyl]-1H-indazole-3,5-dicarboxylic acid 5-[(2-hydroxy-1-hydroxymethyl-1-methyl-ethyl)-amide]3-[(1-isopropyl-piperidin-4-yl)-amide]] the Ki was 51 nM.
O=C(Nc1ccc(C(=O)N2CCCC2)cc1)c1nn(Cc2cc(-c3ccc(Cl)s3)on2)c2ccccc12 [Example 34, 1-[5-(5-Chloro-thiophen-2-yl)-isoxazol-3-ylmethyl]-1H-indazole-3-carboxylic acid [4-(pyrrolidine-1-carbonyl)-phenyl]-amide] showed a Ki of 120 nM.
In the case of CC(C)N1CCC(NC(=O)c2nn(Cc3cc(-c4ccc(Cl)s4)on3)c3ccc(C(=O)O)cc23)CC1 [Example 4, 1-[5-(5-Chloro-thiophen-2-yl)-isoxazol-3-ylmethyl]-3-(1-isopropyl-piperidin-4-ylcarbamoyl)-1H-indazole-5-carboxylic acid], the Ki is reported as 18 nM.
In the case of CC(C)N1CCC(NC(=O)c2nn(Cc3cc(-c4ccc(Cl)s4)on3)c3ccc(C(=O)NC[Si](C)(C)C)cc23)CC1 [Example 16, 1-[5-(5-Chloro-thiophen-2-yl)-isoxazol-3-ylmethyl]-1H-indazole-3,5-dicarboxylic acid 3-[(1-isopropyl-piperidin-4-yl)-amide]5-trimethylsilanylmethyl-amide], the Ki is reported as 54 nM.
O=C(Nc1ccc(-c2c[nH]cn2)cc1)c1nn(Cc2cc(-c3ccc(Cl)s3)on2)c2ccccc12 [Example 45, 1-[5-(5-Chloro-thiophen-2-yl)-isoxazol-3-ylmethyl]-1H-indazole-3-carboxylic acid [4-(1H-imidazol-4-yl)-phenyl]-amide] showed a Ki of 180 nM.
With COC(=O)c1ccc2c(c1)c(C(=O)NC1CCN(C(C)C)CC1)nn2Cc1cc(-c2ccc(Cl)s2)on1 [Example 1, 1-[5-(5-Chloro-thiophen-2-yl)-isoxazol-3-ylmethyl]-3-(1-isopropyl-piperidin-4-ylcarbamoyl)-1H-indazole-5-carboxylic acid methyl ester] the Ki was 79 nM.
For O=C(Nc1ccc(N2CCCC2=O)cc1)c1nn(Cc2cc(-c3ccc(Cl)s3)on2)c2ccccc12 [Example 39, 1-[5-(5-Chloro-thiophen-2-yl)-isoxazol-3-ylmethyl]-1H-indazole-3-carboxylic acid [4-(2-oxo-pyrrolidin-1-yl)-phenyl]-amide], the Ki was 19 nM.
CC(C)N1CCC(NC(=O)c2nn(Cc3cc(-c4ccc(Cl)s4)on3)c3ccc(C(=O)NCC(N)=O)cc23)CC1 [Example 21, 1-[5-(5-Chloro-thiophen-2-yl)-isoxazol-3-ylmethyl]-1H-indazole-3,5-dicarboxylic acid 5-carbamoylmethyl-amide 3-[(1-isopropyl-piperidin-4-yl)-amide]] showed a Ki of 33 nM.
CC(C)N1CCC(NC(=O)c2nn(Cc3cc(-c4ccc(Cl)s4)on3)c3ccc(C(=O)NCCS(N)(=O)=O)cc23)CC1 [Example 14, 1-[5-(5-Chloro-thiophen-2-yl)-isoxazol-3-ylmethyl]-1H-indazole-3,5-dicarboxylic acid 3-[(1-isopropyl-piperidin-4-yl)-amide]5-[(2-sulfamoyl-ethyl)-amide]] gave a Ki of 28 nM.
For O=C(Nc1ccc(-n2ccc(=O)cc2)cc1)c1nn(Cc2cc(-c3ccc(Cl)s3)on2)c2ccccc12 [Example 54, 1-[5-(5-Chloro-thiophen-2-yl)-isoxazol-3-ylmethyl]-1H-indazole-3-carboxylic acid [4-(4-oxo-4H-pyridin-1-yl)-phenyl]-amide], the Ki was 52 nM.
In the case of COC(=O)c1ccc2c(c1)c(C(=O)Nc1ccc(N3CCOCC3=O)cc1)nn2Cc1cc(-c2ccc(Cl)s2)on1 [Example 47, 1-[5-(5-Chloro-thiophen-2-yl)-isoxazol-3-ylmethyl]-3-[4-(3-oxo-morpholin-4-yl)-phenylcarbamoyl]-1H-indazole-5-carboxylic acid methyl ester], the Ki is reported as 9 nM.
For CC(C)N1CCC(NC(=O)c2nn(Cc3cc(-c4ccc(Cl)s4)on3)c3cc(C(=O)O)ccc23)CC1 [Example 6, 1-[5-(5-Chloro-thiophen-2-yl)-isoxazol-3-ylmethyl]-3-(1-isopropyl-piperidin-4-ylcarbamoyl)-1H-indazole-6-carboxylic acid], the Ki was 212 nM.
CC(C)N1CCC(NC(=O)c2nn(Cc3cc(-c4ccc(Cl)s4)on3)c3ccc(C(=O)NCC(F)F)cc23)CC1 [Example 20, 1-[5-(5-Chloro-thiophen-2-yl)-isoxazol-3-ylmethyl]-1H-indazole-3,5-dicarboxylic acid 5-[(2,2-difluoro-ethyl)-amide]3-[(1-isopropyl-piperidin-4-yl)-amide]] gave a Ki of 47 nM.
For CC(C)N1CCC(NC(=O)c2nn(Cc3cc(-c4ccc(Cl)s4)on3)c3ccc(C(=O)N4CCCOCC4)cc23)CC1 [Example 30, 1-[5-(5-Chloro-thiophen-2-yl)-isoxazol-3-ylmethyl]-5-([1,4]oxazepane-4-carbonyl)-1H-indazole-3-carboxylic acid (1-isopropyl-piperidin-4-yl)-amide], the Ki was 12 nM.
CC(C)N1CCC(NC(=O)c2nn(Cc3cc(-c4ccc(Cl)s4)on3)c3ccc(C(=O)N4CC(C(=O)O)C4)cc23)CC1 [Example 52, 1-[1-[5-(5-Chloro-thiophen-2-yl)-isoxazol-3-ylmethyl]-3-(1-isopropyl-piperidin-4-ylcarbamoyl)-1H-indazole-5-carbonyl]-azetidine-3-carboxylic acid] gave a Ki of 10 nM.
Compound CC(C)N1CCC(NC(=O)c2nn(Cc3cc(-c4ccc(Cl)s4)on3)c3ccc(C(=O)N4CCC4)cc23)CC1 [Example 12, 5-(Azetidine-1-carbonyl)-1-[5-(5-chloro-thiophen-2-yl)-isoxazol-3-ylmethyl]-1H-indazole-3-carboxylic acid (1-isopropyl-piperidin-4-yl)-amide] has a Ki of 5 nM.
Work on CC(C)N1CCC(NC(=O)c2nn(Cc3cc(-c4ccc(Cl)s4)on3)c3cccc(-c4noc(=O)[nH]4)c23)CC1 [Example 11, 1-[5-(5-Chloro-thiophen-2-yl)-isoxazol-3-ylmethyl]-4-(5-oxo-4,5-dihydro-[1,2,4]oxadiazol-3-yl)-1H-indazole-3-carboxylic acid (1-isopropyl-piperidin-4-yl)-amide] yielded a Ki of 7 nM.
